In general, IC50 refers to the concentration that inhibits the measured activity by half. High values mean a need for much substance, low ones inhibition by little substance.

The subject of the assay is SRE.L-firefly luciferase reporter (Rho/MKL1 pathway) in PC-3 prostate cancer cells. In words: SRE.L-luciferase reporter assay. The assay is classed as cell-based. The conditions noted are these: PC-3 cells transfected with Gα12Q231L, SRE.L and pRL-TK reporters, compound 19 hrs. The protocol: Seed PC-3 prostate cancer cells (40,000 cells/well) were grown in 96-well plates in 10% FBS containing DMEM medium. Cells were transiently transfected with the Ga12QL activator of the Rho/MKL1 pathway, along with the SRE.L-firefly luciferase reporter construct for 6 hours. Additionally, cells were co-transfected with the TK-Renilla luciferase reporter as an indicator of non-specific compound effects. Various concentrations of the compounds disclosed herein were added to the 96-well plates. Plates were incubated for 19 hours at 37° C. and 5% C02 in 0.5% FBS containing DMEM medium. Cells were lysed with IX Passive Lysis Buffer (Promega). Plates were incubated for 30 minutes at room temperature. Luminescence counts were read with a Victor2 (Perkin-Elmer) plate reader.
One hour prior to cell lysis for the dual luciferase assay, 10 μl: per well of WST1 reagent (Roche) was added to the 96-well plates. Plates were incubated for 1 hour at 37° C. and 5% CO2. Cell viability was measured by WST1 absorbance at 450 nm with a Victor2 (Perkin-Elmer) plate reader.
Biological activity of the compounds disclosed herein were assessed in the SRE.L luciferase reporter assay. PC-3 prostate cancer cells were co-transfected with 2 ng of the Gα12Q231L expression plasmid along with 50 ng of the SRE.L and 7 ng of the pRL-TK luciferase reporter plasmids, as described in the Materials and Methods section. Cells were treated with 0 (vehicle, DMSO alone), 1, 3, 10, 30, and 100 μM of a compound disclosed herein for 19 hrs after transfection before lysis. Luminescence was determined as described in the Materials and Methods section. Just before cell lysis, the viability of the cells was measured using the WST-1 cell proliferation reagent as described in the Materials and Methods section. Data are expressed as percentage of inhibition (DMSO alone=0%). The experiments were performed three separate times to achieve n=3 in triplicate.
For orientation: A reporter such as luciferase makes a cellular process visible.

Molecule `COC1CC(C(=O)Nc2ccc(Cl)cc2)CN(C(=O)c2cccc(-c3ccco3)c2)C1` (single isomer, unassigned) [Example E-045, N-(4-chlorophenyl)-1-(3-(furan-2-yl)benzoyl)-5-methoxypiperidine-3-carboxamide] gave an IC50 of 0.93 µM. This lies in the sub-micromolar range.

As to `COC1CC(C(=O)Nc2ccc(Cl)cc2)CN(C(=O)c2cccc(-c3ccco3)c2)C1` (single isomer, unassigned) [Example E-046, N-(4-chlorophenyl)-1-(3-(furan-2-yl)benzoyl)-5-methoxypiperidine-3-carboxamide], the IC50 was found to be 2.3 µM. This IC50 is about 2.5-fold higher than that of the molecule before.

On to `O=C(NC1CC(C(=O)Nc2ccc(Cl)cc2)CN(C(=O)c2cccc(-c3ccco3)c2)C1)c1ccccc1` (single isomer, unassigned) [Example E-054, 5-benzamido-N-(4-chlorophenyl)-1-(3-(furan-2-yl)benzoyl) piperidine-3-carboxamide], for which the IC50 was 30 µM.

The molecule `O=C(NC1CC(C(=O)Nc2ccc(Cl)cc2)CN(C(=O)c2cccc(-c3ccco3)c2)C1)c1ccccc1` (single isomer, unassigned) [Example E-055, 5-benzamido-N-(4-chlorophenyl)-1-(3-(furan-2-yl)benzoyl) piperidine-3-carboxamide] displayed an IC50 of 2.2 µM. This IC50 lies about 14-fold lower than the previous one.

The molecule `CN(Cc1ccccc1)C1CC(C(=O)Nc2ccc(Cl)cc2)CN(C(=O)c2cccc(-c3ccco3)c2)C1` (single isomer, unassigned) [Example E-060, 5-(benzyl(methyl)amino)-N-(4-chlorophenyl)-1-(3-(furan-2-yl)benzoyl)piperidine-3-carboxamide] yielded a concentration for half-maximal inhibition (IC50) of 18 µM.

In the case of `CN(Cc1ccccc1)C1CC(C(=O)Nc2ccc(Cl)cc2)CN(C(=O)c2cccc(-c3ccco3)c2)C1` (single isomer, unassigned) [Example E-061, 5-(benzyl(methyl)amino)-N-(4-chlorophenyl)-1-(3-(furan-2-yl)benzoyl)piperidine-3-carboxamide], the IC50 is 1.9 µM. Compared with the last molecule, the IC50 is about 9.5-fold lower.

For the molecule `CC(c1ccc(-n2cccn2)cc1)N1CCCC(C(=O)Nc2ccc(Cl)cc2)C1` (single isomer, unassigned) [Example E-102, 1-(1-(4-(1H-pyrazol-1-yl)phenyl)ethyl)-N-(4-chlorophenyl)piperidine-3-carboxamide], for the setting “19 h”, half-maximal inhibition (IC50) required 1.4 µM.

As for `CC(c1ccc(-n2cccn2)cc1)N1CCCC(C(=O)Nc2ccc(Cl)cc2)C1` (single isomer, unassigned) [Example E-103, 1-(1-(4-(1H-pyrazol-1-yl)phenyl)ethyl)-N-(4-chlorophenyl)piperidine-3-carboxamide], half-maximal inhibition (IC50) was put at 2.2 µM. This counts as single-digit micromolar.

Molecule `O=C(c1cccc(-c2ccco2)c1)N1CCCC(F)(C(=O)Nc2ccc(Cl)cc2)C1` (stereo not shown) [Example E-001, N-(4-chlorophenyl)-3-fluoro-1-(3-(furan-2-yl)benzoyl)piperidine-3-carboxamide] returned an IC50 (19 h) of 7.3 µM.

Under “19 h”, `O=C(Nc1ccc(Cl)cc1)C1CCCN(C(=O)c2cccc(-c3ccco3)c2)C1` (stereo not shown) [Example E-002, N-(4-chlorophenyl)-1-(3-(furan-2-yl)benzoyl)piperidine-3-carboxamide] came in with an IC50 of 7.1 µM.

As for `O=C(Nc1ccc(Cl)cc1)C1CCCN(C(=O)c2cccc(-c3ccc(Cl)o3)c2)C1` (stereo not shown) [Example E-003, 1-(3-(5-chlorofuran-2-yl)benzoyl)-N-(4-chlorophenyl)piperidine-3-carboxamide], the IC50 (19 h) turned out to be 12 µM.

Where the note is “19 h”, `O=C(Nc1ccc(Cl)cc1)C1CN(C(=O)c2cccc(-c3ccco3)c2)CCN1C(=O)OCc1ccccc1` (stereo not shown) [Example E-004, benzyl 2-((4-chlorophenyl)carbamoyl)-4-(3-(furan-2-yl)benzoyl)piperazine-1-carboxylate] came in with a half-inhibitory concentration (IC50) of 1.8 µM.

Under “19 h”, `CCC(=O)N1CCN(C(=O)c2cccc(-c3ccco3)c2)CC1C(=O)Nc1ccc(Cl)cc1` (stereo not shown) [Example E-005, N-(4-chlorophenyl)-4-(3-(furan-2-yl)benzoyl)-1-propionylpiperazine-2-carboxamide] returned an IC50 of 19 µM.

The molecule `CC(C)C(=O)N1CCN(C(=O)c2cccc(-c3ccco3)c2)CC1C(=O)Nc1ccc(Cl)cc1` (stereo not shown) [Example E-006, N-(4-chlorophen)-4-(3-(furan-2-yl)benzoyl)-1-isobutyrylpiperazine-2-carboxamide] returned an IC50 (19 h) of 12 µM.

Regarding `COc1ccc(C(=O)N2CCN(C(=O)c3cccc(-c4ccco4)c3)CC2C(=O)Nc2ccc(Cl)cc2)cc1` (stereo not shown) [Example E-007, N-(4-chlorophenyl)-4-(3-(furan-2-yl)benzoyl)-1-(4-methoxybenzoyl)piperazine-2-carboxamide], where the note is “19 h”, it took 15 µM to reach half-maximal inhibition (IC50).

In the case of `CC(=O)N1CCN(C(=O)c2cccc(-c3ccco3)c2)CC1C(=O)Nc1ccc(Cl)cc1` (stereo not shown) [Example E-008, 1-acetyl-N-(4-chlorophenyl)-4-(3-(furan-2-yl)benzoyl)piperazine-2-carboxamide], the concentration for half-maximal inhibition (IC50) (19 h) turned out to be 50 µM. Against the preceding molecule, the IC50 is about 3.3-fold higher.

`O=C(Nc1ccc(Cl)cc1)C1CN(C(=O)c2cccc(-c3ccco3)c2)CCN1C(=O)Nc1ccccc1` (stereo not shown) [Example E-009, N2-(4-chlorophenyl)-4-(3-(furan-2-yl)benzoyl)-N1-phenylpiperazine-1,2-dicarboxamide]: it took 18 µM to reach half-maximal inhibition (19 h) (IC50).

As for `CC(C)NC(=O)N1CCN(C(=O)c2cccc(-c3ccco3)c2)CC1C(=O)Nc1ccc(Cl)cc1` (stereo not shown) [Example E-010, N2-(4-chlorophenyl)-4-(3-(furan-2-yl)benzoyl)-N1-isopropylpiperazine-1,2-dicarboxamide], the midpoint of inhibition (19 h), the IC50, lay at 24 µM.

In the case of `O=C(Nc1ccc(Cl)cc1)C1CN(C(=O)c2cccc(-c3ccco3)c2)CCN1C(=O)NC1CCCC1` (stereo not shown) [Example E-011, N2-(4-chlorophenyl)-N1-cyclopentyl-4-(3-(furan-2-yl)benzoyl)piperazine-1,2-dicarboxamide], the IC50 (19 h) was found to be 14 µM.

With `C=CCNC(=O)N1CCN(C(=O)c2cccc(-c3ccco3)c2)CC1C(=O)Nc1ccc(Cl)cc1` (stereo not shown) [Example E-012, N1-allyl-N2-(4-chlorophenyl)-4-(3-(furan-2-yl)benzoyl)piperazine-1,2-dicarboxamide], it took 25 µM to reach half-maximal inhibition (19 h) (IC50).

`CCCOC(=O)N1CCN(C(=O)c2cccc(-c3ccco3)c2)CC1C(=O)Nc1ccc(Cl)cc1` (stereo not shown) [Example E-013, propyl 2((4-chlorophenyl)carbamoyl)-4-(3-(furan-2-yl)benzoyl)piperazine-1-carboxylate]: the midpoint of inhibition (19 h), the IC50, lay at 18 µM.

As to `CCOC(=O)N1CCN(C(=O)c2cccc(-c3ccco3)c2)CC1C(=O)Nc1ccc(Cl)cc1` (stereo not shown) [Example E-014, ethyl 2((4-chlorophenyl)carbamoyl)-4-(3-(furan-2-yl)benzoyl)piperazine-1-carboxylate], half-maximal inhibition (19 h) (IC50) was put at 16 µM. The IC50 values of the last two molecules are within 1.5-fold of each other.

In the case of `O=C(Nc1ccc(Cl)cc1)C1CN(C(=O)c2cccc(-c3ccco3)c2)CCN1C(=O)Oc1ccccc1` (stereo not shown) [Example E-015, phenyl 2((4-chlorophenyl)carbamoyl)-4-(3-(furan-2-yl)benzoyl)piperazine-1-carboxylate], for the setting “19 h”, the IC50 worked out at 26 µM.

On to `COCCOC(=O)N1CCN(C(=O)c2cccc(-c3ccco3)c2)CC1C(=O)Nc1ccc(Cl)cc1` (stereo not shown) [Example E-016, 2-methoxyethyl 2((4-chlorophenyl)carbamoyl)-4-(3-(furan-2-yl)benzoyl)piperazine-1-carboxylate], for which half-maximal inhibition (19 h) (IC50) was put at 16 µM.

For the setting “19 h”, `O=C(Nc1ccc(Cl)cc1)C1CN(C(=O)c2cccc(-c3ccco3)c2)CCN1Cc1ccccc1` (stereo not shown) [Example E-017, 1-benzyl-N-(4-chlorophenyl)-4-(3-(furan-2-yl)benzoyl)piperazine-2-carboxamide] had an IC50 of 16 µM.

The values above are taken from patent publication US10662183B2, “Inhibitors of myocardin-related transcription factor and serum response factor (MRTF/SRF)-mediated gene transcription and methods for use of the same” (THE REGENTS OF THE UNIVERSITY OF MICHIGAN, priority 2014, dated 2020).
